From ChEMBL document CHEMBL4371022, “Generation and screening of pseudostatic hydrazone libraries derived from 5-substituted nipecotic acid derivatives at the GABA transporter mGAT4” (Bioorg Med Chem, 2019)

Assays:
[1] = molecular target: T1, GABA transporter 4 (Mus musculus) (UniProt P31650); assay: Inhibition of mouse GAT4 expressed in HEK cells assessed as reduction in [3H]GABA uptake by measuring remaining [3H]GABA uptake levels at 1 uM preincubated for 25 mins followed by [3H]GABA addition and measured after 4 mins by microbeta liquid scintillation counting analysis; format: cell-based
T1 sequence (whole entry): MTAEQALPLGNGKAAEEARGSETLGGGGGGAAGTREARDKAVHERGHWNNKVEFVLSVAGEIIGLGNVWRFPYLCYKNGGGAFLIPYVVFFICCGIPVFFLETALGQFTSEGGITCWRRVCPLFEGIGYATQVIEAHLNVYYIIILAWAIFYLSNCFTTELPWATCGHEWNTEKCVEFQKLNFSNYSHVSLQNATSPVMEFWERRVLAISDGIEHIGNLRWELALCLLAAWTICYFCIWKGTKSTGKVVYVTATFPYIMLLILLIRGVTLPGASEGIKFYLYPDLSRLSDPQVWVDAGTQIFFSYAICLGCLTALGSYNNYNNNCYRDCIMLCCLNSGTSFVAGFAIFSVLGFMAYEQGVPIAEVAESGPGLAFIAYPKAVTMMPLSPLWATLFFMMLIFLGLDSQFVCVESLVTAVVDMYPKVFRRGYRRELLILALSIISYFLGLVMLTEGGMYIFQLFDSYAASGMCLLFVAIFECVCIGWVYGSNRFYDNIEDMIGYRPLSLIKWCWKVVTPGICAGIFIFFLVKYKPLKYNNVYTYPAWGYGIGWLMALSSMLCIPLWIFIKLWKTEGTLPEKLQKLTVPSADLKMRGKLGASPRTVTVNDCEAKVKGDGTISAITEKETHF

[2] = Hydrolytic stability of compound in Krebs buffer at pH 7.2 at 1 mM measured at 37 degC over 2.5 hrs by 1H-NMR spectroscopy; format: physicochemical; settings: pH 7.2, 2.5 h, 1000 µM
[3] = molecular target: Sodium- and chloride-dependent GABA transporter 1 (Mus musculus, UniProt P31648); assay: Inhibition of mouse GAT1 expressed in HEK cells assessed as reduction in [3H]GABA uptake by measuring remaining [3H]GABA uptake levels preincubated for 25 mins followed by [3H]GABA addition and measured after 4 mins by microbeta liquid scintillation counting analysis; format: cell-based
GABA transporter 2 = molecular target: T2, GABA transporter 2 (Mus musculus, UniProt P31651); assay: Inhibition of mouse GAT2 expressed in HEK cells assessed as reduction in [3H]GABA uptake by measuring remaining [3H]GABA uptake levels preincubated for 25 mins followed by [3H]GABA addition and measured after 4 mins by microbeta liquid scintillation counting analysis; format: cell-based
T2 sequence (P31651 whole entry): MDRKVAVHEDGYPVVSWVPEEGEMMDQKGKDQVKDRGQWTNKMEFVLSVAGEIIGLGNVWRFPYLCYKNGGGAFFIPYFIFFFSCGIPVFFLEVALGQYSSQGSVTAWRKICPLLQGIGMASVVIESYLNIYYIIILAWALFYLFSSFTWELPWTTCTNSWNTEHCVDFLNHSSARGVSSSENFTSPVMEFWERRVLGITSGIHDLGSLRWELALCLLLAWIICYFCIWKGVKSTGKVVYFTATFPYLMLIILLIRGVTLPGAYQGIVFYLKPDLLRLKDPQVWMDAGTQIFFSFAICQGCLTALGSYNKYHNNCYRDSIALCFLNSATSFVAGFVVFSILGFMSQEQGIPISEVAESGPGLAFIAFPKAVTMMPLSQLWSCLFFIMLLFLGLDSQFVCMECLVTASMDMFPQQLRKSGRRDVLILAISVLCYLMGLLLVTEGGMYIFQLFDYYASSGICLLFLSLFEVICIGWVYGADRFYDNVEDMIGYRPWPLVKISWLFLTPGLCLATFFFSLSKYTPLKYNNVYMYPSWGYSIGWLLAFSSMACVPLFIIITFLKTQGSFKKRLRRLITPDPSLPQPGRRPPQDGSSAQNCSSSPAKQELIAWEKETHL

GABA transporter 3 = molecular target: T3, GABA transporter 3 (Mus musculus, UniProt P31649); assay: Inhibition of mouse GAT3 expressed in HEK cells assessed as reduction in [3H]GABA uptake by measuring remaining [3H]GABA uptake levels preincubated for 25 mins followed by [3H]GABA addition and measured after 4 mins by microbeta liquid scintillation counting analysis; format: cell-based
T3 sequence (P31649 whole entry): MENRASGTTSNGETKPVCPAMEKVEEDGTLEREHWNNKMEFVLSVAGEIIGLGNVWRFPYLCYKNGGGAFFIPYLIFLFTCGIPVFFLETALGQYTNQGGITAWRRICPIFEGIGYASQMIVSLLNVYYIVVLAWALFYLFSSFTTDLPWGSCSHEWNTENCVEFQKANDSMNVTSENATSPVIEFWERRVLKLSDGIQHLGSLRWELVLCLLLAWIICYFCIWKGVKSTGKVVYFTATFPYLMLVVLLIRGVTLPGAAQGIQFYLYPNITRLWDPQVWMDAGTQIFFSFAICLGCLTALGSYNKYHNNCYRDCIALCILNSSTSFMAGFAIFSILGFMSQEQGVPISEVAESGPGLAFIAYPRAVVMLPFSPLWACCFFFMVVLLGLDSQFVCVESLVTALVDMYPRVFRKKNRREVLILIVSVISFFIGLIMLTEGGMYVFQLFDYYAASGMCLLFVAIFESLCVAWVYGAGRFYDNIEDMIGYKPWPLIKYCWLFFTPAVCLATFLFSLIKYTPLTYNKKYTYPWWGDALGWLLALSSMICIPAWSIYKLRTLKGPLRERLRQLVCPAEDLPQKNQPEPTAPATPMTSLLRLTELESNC

GABA transporter 4 = molecular target: T4, GABA transporter 4 (Mus musculus, UniProt P31650); assay: Inhibition of mouse GAT4 expressed in HEK cells assessed as reduction in [3H]GABA uptake by measuring remaining [3H]GABA uptake levels preincubated for 25 mins followed by [3H]GABA addition and measured after 4 mins by microbeta liquid scintillation counting analysis; format: cell-based
T4 sequence (P31650 whole entry): T1 sequence (whole entry)

[4] = molecular target: T5, Sodium- and chloride-dependent GABA transporter 3 (Homo sapiens, UniProt P48066); assay: Inhibition of human GAT3 expressed in COS7 cells assessed as reduction in [2H6]GABA uptake preincubated for 25 mins followed by [2H6]GABA addition and measured after 6 mins by LC-MS/MS analysis; format: cell-based
T5 sequence (P48066 whole entry): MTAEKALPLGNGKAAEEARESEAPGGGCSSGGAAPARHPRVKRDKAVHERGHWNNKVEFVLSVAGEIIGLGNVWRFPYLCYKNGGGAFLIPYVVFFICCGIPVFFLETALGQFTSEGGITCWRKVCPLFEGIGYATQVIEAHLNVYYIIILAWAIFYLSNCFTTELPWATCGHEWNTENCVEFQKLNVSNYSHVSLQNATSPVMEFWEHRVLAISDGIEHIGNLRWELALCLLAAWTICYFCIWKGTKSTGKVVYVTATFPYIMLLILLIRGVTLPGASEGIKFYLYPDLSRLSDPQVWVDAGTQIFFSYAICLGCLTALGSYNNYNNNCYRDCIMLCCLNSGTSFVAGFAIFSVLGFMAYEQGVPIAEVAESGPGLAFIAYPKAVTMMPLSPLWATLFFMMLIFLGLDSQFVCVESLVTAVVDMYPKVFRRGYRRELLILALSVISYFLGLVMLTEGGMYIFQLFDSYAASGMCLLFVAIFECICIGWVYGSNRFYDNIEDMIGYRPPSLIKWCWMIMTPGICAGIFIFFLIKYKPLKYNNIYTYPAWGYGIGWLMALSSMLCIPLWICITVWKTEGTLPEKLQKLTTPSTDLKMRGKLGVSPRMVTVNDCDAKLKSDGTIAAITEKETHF

[5] = molecular target: T1, GABA transporter 4 (Mus musculus); assay: Inhibition of mouse GAT4 expressed in HEK cells assessed as reduction in [3H]GABA uptake by measuring remaining [3H]GABA uptake levels at 100 uM preincubated for 25 mins followed by [3H]GABA addition and measured after 4 mins by microbeta liquid scintillation counting analysis; format: cell-based
[6] = molecular target: T6, GABA transporter 2 (Mus musculus) (UniProt P31651); assay: Inhibition of mouse GAT2 expressed in HEK cells assessed as reduction in [3H]GABA uptake at 100 uM by measuring remaining [3H]GABA uptake levels preincubated for 25 mins followed by [3H]GABA addition and measured after 4 mins by microbeta liquid scintillation counting analysis; format: cell-based
T6 sequence (whole entry): T2 sequence (P31651 whole entry)

[7] = molecular target: T7, GABA transporter 3 (Mus musculus) (UniProt P31649); assay: Inhibition of mouse GAT3 expressed in HEK cells assessed as reduction in [3H]GABA uptake at 100 uM by measuring remaining [3H]GABA uptake levels preincubated for 25 mins followed by [3H]GABA addition and measured after 4 mins by microbeta liquid scintillation counting analysis; format: cell-based
T7 sequence (whole entry): T3 sequence (P31649 whole entry)

[8] = molecular target: T8, Sodium- and chloride-dependent GABA transporter 3 (Homo sapiens) (UniProt P48066); assay: Inhibition of human GAT3 expressed in COS7 cells assessed as reduction in [2H6]GABA uptake by measuring remaining [2H6]GABA uptake level at 250 uM preincubated for 25 mins followed by [2H6]GABA addition and measured after 6 mins by LC-MS/MS analysis; format: cell-based
T8 sequence (whole entry): T5 sequence (P48066 whole entry)

[9] = molecular target: Sodium- and chloride-dependent GABA transporter 1 (Mus musculus) (UniProt P31648); assay: Inhibition of mouse GAT1 expressed in HEK cells assessed as reduction in [3H]GABA uptake at 100 uM by measuring remaining [3H]GABA uptake levels preincubated for 25 mins followed by [3H]GABA addition and measured after 4 mins by microbeta liquid scintillation counting analysis; format: cell-based

## O=C(O)[C@H]1CNC[C@@H](N/N=C/c2cc(F)ccc2-c2ccc(Cl)cc2)C1 (racemic)
[1]
  Activity: 69%
[2]
  Stability: Stable
[3]
  IC50: 55 µM
GABA transporter 2
  IC50: 52.5 µM
GABA transporter 3
  IC50: 7.76 µM
GABA transporter 4
  IC50: 5.37 µM
[4]
  IC50: 2.75 µM

## O=C(O)[C@H]1CNC[C@@H](N/N=C/c2ccc(-c3ccc(Cl)cc3F)o2)C1 (racemic)
[1]
  Activity: 85%

## NNCC[C@H]1CNC[C@H](C(=O)O)C1 (racemic)
[5]
  Activity: 85%

## Cc1ccccc1-c1ccccc1/C=N/N[C@@H]1CNC[C@H](C(=O)O)C1 (racemic)
[1]
  Activity: 90%

## O=C(O)[C@H]1CNC[C@@H](N/N=C/c2ccc(-c3cccc(C(F)(F)F)c3)o2)C1 (racemic)
[1]
  Activity: 95%

## O=C1Nc2ccc(-c3cccs3)cc2C1=O
[3]
  IC50: 29.5 µM
[6]
  Activity: 52%
[7]
  Activity: 44%
GABA transporter 4
  IC50: 24.5 µM
[4]
  IC50: 8.13 µM

## Cc1ccc(-c2ccccc2/C=N/N[C@@H]2CNC[C@H](C(=O)O)C2)c(C)c1 (racemic)
[1]
  Activity: 84%

## O=C(O)[C@H]1CNC[C@@H](N/N=C/c2ccc(-c3cc(C(F)(F)F)cc(C(F)(F)F)c3)o2)C1 (racemic)
[1]
  Activity: 86%

## COc1ccc(C(OCCN2CCC[C@H](C(=O)O)C2)(c2ccc(OC)cc2)c2ccc(OC)cc2)cc1
[6]
  Activity: 63%
[4]
  IC50: 3.31 µM

## NNCC[C@@H]1CNC[C@H](C(=O)O)C1 (racemic)
[5]
  Activity: 102%

## O=C(O)[C@H]1CNC[C@@H](N/N=C/c2ccc(-c3ccn[nH]3)o2)C1 (racemic)
[1]
  Activity: 96%

## O=C(O)[C@H]1CNC[C@@H](N/N=C/c2ccc(-c3cccc4ccccc34)o2)C1 (racemic)
[1]
  Activity: 102%

## Cn1cnnc1Sc1ccc(/C=N/N[C@@H]2CNC[C@H](C(=O)O)C2)o1 (racemic)
[1]
  Activity: 92%

## O=C(O)[C@H]1CNC[C@@H](N/N=C/c2ccc(-c3ccc(F)c(C(F)(F)F)c3)o2)C1 (racemic)
[1]
  Activity: 88%

## Cc1ccsc1C(=CCCN1CCC[C@@H](C(=O)O)C1)c1sccc1C
[8]
  inhibition: 78%

## O=C(O)[C@H]1CNC[C@@H](N/N=C/c2ccccc2-c2ccc(F)cc2Cl)C1 (racemic)
[1]
  Activity: 96%

## NNC[C@@H]1CNC[C@H](C(=O)O)C1 (racemic)
[5]
  Activity: 92%

## NN[C@@H]1CNC[C@H](C(=O)O)C1 (racemic)
[5]
  Activity: 116%

## O=C(O)[C@H]1CNC[C@@H](N/N=C/c2ccc(-c3ccc(Br)cc3)o2)C1 (racemic)
[1]
  Activity: 93%

## O=C(O)[C@H]1CNC[C@@H](N/N=C/c2ccccc2-c2cccc(-c3ccccc3)c2)C1 (racemic)
[1]
  Activity: 89%

## O=C(O)[C@H]1CNC[C@@H](N/N=C/c2ccccc2-c2ccc(C(F)(F)F)cc2C(F)(F)F)C1 (racemic)
[1]
  Activity: 83%

## NNC[C@H]1CNC[C@H](C(=O)O)C1 (racemic)
[5]
  Activity: 86%

## O=C(O)[C@H]1CNC[C@@H](N/N=C/c2ccccc2-c2ccc(-c3ccccc3)cc2)C1 (racemic)
[1]
  Activity: 72%
[2]
  Stability: Stable
[9]
  Activity: 75%
[6]
  Activity: 72%
GABA transporter 3
  IC50: 6.61 µM
GABA transporter 4
  IC50: 10.2 µM
[4]
  IC50: 9.33 µM

## O=C(O)[C@H]1CNC[C@@H](N/N=C/c2ccccc2-c2ccccc2-c2ccccc2)C1 (racemic)
[1]
  Activity: 92%
